Test results as given in patent US20110166126A1, “Compositions and Methods for Modulating Endophthalmitis Using Fluoroquinolones” (priority 2007, published 2011).
Values after ≈ are worked out from the molar mass of the structure shown. “Also recorded” adds a separate entry of the source.

Tests used:
[1] = system: LPS-stimulated cytokine production in human THP-1 monocytes; assay: Inhibition of LPS-induced cytokine expression in human THP-1 monocytes (multiplex Luminex); format: cell-based; parameters: key to Inhibition of LPS-stimulated G-CSF production / Inhibition of LPS-stimulated GM-CSF production / Inhibition of LPS-stimulated IL-12p40 production / Inhibition of LPS-stimulated IL-1α production / Inhibition of LPS-stimulated IL-1β production / Inhibition of LPS-stimulated IL-1ra production / Inhibition of LPS-stimulated IL-6 production / Inhibition of LPS-stimulated IL-8 production / Inhibition of LPS-stimulated IP-10 production / Inhibition of LPS-stimulated MCP-1 production / Inhibition of LPS-stimulated MIP-1α production / Inhibition of LPS-stimulated VEGF production: “X” signifies significant inhibition at a particular concentration
Procedure: Human THP-1 monocytes (ATCC TIB 202) were purchased from American Type Culture Collection (Manassas, Va.) and maintained in RPMI 1640 medium (Invitrogen, Carlsbad, Calif.) supplemented with 10% fetal bovine serum (“FBS”, Invitrogen, Carlsbad, Calif.), 100 U/mL of penicillin (Invitrogen, Carlsbad, Calif.), and 100 μg/mL of streptomycin (Invitrogen, Carlsbad, Calif.) at 37° C. in a humidified incubator with 5% CO2. THP-1 cells were pre-cultured in RPMI 1640 medium containing 10% dialyzed serum for 24 h. […] Each treatment was performed in triplicate.
Samples were analyzed using multiplex bead technology, which utilizes microspheres as the solid support for immunoassays and allows the analysis of all cytokines from each sample (D. A. Vignali, J. Immunol. Methods, Vol. 243, 243-255 (2000)). Sixteen cytokines were measured according to the manufacturer's instructions. Briefly, 50 μl, of medium samples were incubated with antibody-coated capture beads overnight at 4° C. Washed beads were further incubated with biotin-labeled anti-human cytokine antibodies for 2 hours at room temperature followed by incubation with streptavidin-phycoerythrin for 30 min. Samples were analyzed using Luminex 200™ (Luminex, Austin, Tex.) and Beadview software v1.0 (Upstate Cell Signaling Solutions, Temecula, Calif.). Standard curves of known concentrations of recombinant human cytokines were used to convert fluorescence units (median fluorescence intensity) to cytokine concentration in pg/mL. Only the linear portions of the standard curves were used to quantify cytokine concentrations, and in instances where the fluorescence reading exceeded the linear range of the standard curve, an appropriate dilution was performed to ensure that the concentration was in the linear portion of the curve.
All cytokine concentrations (pg/mL) were expressed as mean±standard deviation. Statistical analysis comparing effects of treatment across groups was performed using a one-way ANOVA with a Dunnett's post-hoc comparison test using either vehicle control or LPS treatment as references. For all assays, p≦0.05 was predetermined as the criterion of statistical significance.

[2] = system: IL-1β induced IL-8 release in THP-1 monocytes; assay: Effect on IL-1β-induced cytokine (IL-8) release from human THP-1 monocytes (Luminex); format: cell-based; details: for IC50: Homo sapiens, THP-1, 30 ng/mL IL-1β, four-parameter logistic fit, read-out: IC50 for inhibition of IL-1β induced IL-8 release; for IC50 / Effect on IL-1β induced IL-8 release: 18 h
Procedure: Each treatment was performed in triplicate. Media was collected by centrifugation and used for determination of cytokine content using a cytokine Luminex kit. The alamarBlue assay was performed to evaluate cell viability.
After determining the optimal concentration of IL-1β to induce cytokine release (30 ng/mL), cells were pre-cultured in RPMI-1640 medium containing 10% dialyzed FBS in a T-75 flask. […] Each treatment was performed in triplicate. Media were collected and used for determination of cytokine content using a cytokine Luminex kit. AlamarBlue assay was performed to evaluate the cell viability.
(§1) Luminex: Median fluorescence intensity (MFI) was used to obtain the concentration of each cytokines in pg/ml based on the standard curve of each cytokine assayed by Luminex. The linear range of the standard curve for each cytokine was used for determination of cytokine concentration.
To determine inhibition of IL-1β-induced cytokine release into the medium by dexamethasone or fluoroquinolone compounds as well cell viability, statistical analysis was performed using one-way ANOVA-Dunnett's test on raw data, and P<0.05 was considered statistically significant.
A concentration vs. effect curve was plotted for experiment 2, using averaged data from selected samples. […] Data were fitted to a re-parameterized four-parameter logistic equation using similar methodology as that previously described, and utilizing the statistical analysis software JMP8.

[3] = system: primary human corneal epithelial cells (HCEpiC); details: earlier study (PH07038); comparable or better potency compared to moxifloxacin; cited from earlier work
[4] = system: LPS-stimulated cytokine production in human THP-1 monocytes; details: earlier study [8] (PH07025); better potency compared to moxifloxacin; cited from earlier work
THP-1 monocytes = assay: IL-1β and LPS induced IL-8 release from THP-1 monocytes (experiment 1); format: cell-based, Human; details: 300, 100, 60, 30 and 10 ng/mL, 18 h
Procedure: Human monocytic (THP-1) cells were pre-cultured in basal RPMI-1640 medium (commercially available, for example, from Sigma Aldrich) containing 10% dialyzed FBS in a T-75 flask. After 24 h, cells were seeded in 48-well plates in RPMI-1640 medium containing 2% dialyzed FBS at a density of 5.0×10^5 cells/mL with vehicle, IL-1β (300, 100, 60, 30 and 10 ng/mL) and LPS (1 μg/mL) for 18 h (Table 3-1). Each treatment was performed in triplicate. Media were collected and used for determination of cytokine content using a cytokine Luminex kit. The alamarBlue assay was performed to evaluate the cell viability.
as §1
Data was expressed as mean±SD. To determine induction of cytokine release into the medium by IL-1β or LPS, statistical analysis was performed using one-way ANOVA-Dunnett's test, and P<0.05 was considered statistically significant.

[5] = 1 μg/mL, 10 μg/mL LPS, 18 hours
[6] = 10 μg/mL, 10 μg/mL LPS, 18 hours
[7] = 30 μg/mL, 10 μg/mL LPS, 18 hours
[8] = LPS-induced cytokine production, THP-1 monocytes

COc1c(N2C[C@@H]3CCCN[C@@H]3C2)c(F)cc2c(=O)c(C(=O)O)cn(C3CC3)c12 [Moxifloxacin, moxifloxacin, reference compound]
Inhibition of LPS-stimulated IL-12p40 production [1, 5]: X | Inhibition of LPS-stimulated IL-1ra production [1, 6]: X | Inhibition of LPS-stimulated IL-6 production [1, 6]: X | Inhibition of LPS-stimulated IL-12p40 production [1, 6]: X | Inhibition of LPS-stimulated IL-1ra production [1, 7]: X | Inhibition of LPS-stimulated IL-1α production [1, 7]: X | Inhibition of LPS-stimulated IL-1β production [1, 7]: X | Inhibition of LPS-stimulated IL-8 production [1, 7]: X | Inhibition of LPS-stimulated IL-12p40 production [1, 7]: X | Inhibition of LPS-stimulated IP-10 production [1, 7]: X | Inhibition of LPS-stimulated MIP-1α production [1, 7]: X | Inhibition of LPS-stimulated VEGF production [1, 7]: X | Concentration at which a significant inhibitory effect was observed for IL-1ra [1, 8]: 10 µg/mL | Concentration at which a significant inhibitory effect was observed for IL-1α [1, 8]: 30 µg/mL | Concentration at which a significant inhibitory effect was observed for IL-1β [1, 8]: 30 µg/mL | Concentration at which a significant inhibitory effect was observed for IL-6 [1, 8]: 10 µg/mL | Concentration at which a significant inhibitory effect was observed for IL-8 [1, 8]: 30 µg/mL | Concentration at which a significant inhibitory effect was observed for IL-12p40 [1, 8]: 1 µg/mL | Concentration at which a significant inhibitory effect was observed for IP-10 [1, 8]: 30 µg/mL | Concentration at which a significant inhibitory effect was observed for MIP-1α [1, 8]: 30 µg/mL | IC50 [2]: 10.9 ± 4.8 µg/mL (≈ 27.2 µM)

N[C@@H]1CCCCN(c2c(F)cc3c(=O)c(C(=O)O)cn(C4CC4)c3c2Cl)C1 [BOL-303224-A, besifloxacin]
Inhibition of LPS-stimulated IL-1α production ([1]; 0.1 μg/mL, 10 μg/mL LPS, 18 hours): X | Inhibition of LPS-stimulated G-CSF production [1, 5]: X | Inhibition of LPS-stimulated IL-1ra production [1, 5]: X | Inhibition of LPS-stimulated IL-1α production [1, 5]: X | Inhibition of LPS-stimulated IL-6 production [1, 5]: X | Inhibition of LPS-stimulated G-CSF production [1, 6]: X | Inhibition of LPS-stimulated IL-1ra production [1, 6]: X | Inhibition of LPS-stimulated IL-1α production [1, 6]: X | Inhibition of LPS-stimulated IL-6 production [1, 6]: X | Inhibition of LPS-stimulated VEGF production [1, 6]: X | Inhibition of LPS-stimulated G-CSF production [1, 7]: X | Inhibition of LPS-stimulated GM-CSF production [1, 7]: X | Inhibition of LPS-stimulated IL-1ra production [1, 7]: X | Inhibition of LPS-stimulated IL-1α production [1, 7]: X | Inhibition of LPS-stimulated IL-1β production [1, 7]: X | Inhibition of LPS-stimulated IL-6 production [1, 7]: X | Inhibition of LPS-stimulated IL-8 production [1, 7]: X | Inhibition of LPS-stimulated IL-12p40 production [1, 7]: X | Inhibition of LPS-stimulated IP-10 production [1, 7]: X | Inhibition of LPS-stimulated MCP-1 production [1, 7]: X | Inhibition of LPS-stimulated MIP-1α production [1, 7]: X | Inhibition of LPS-stimulated VEGF production [1, 7]: X | Effect on LPS-stimulated production of RANTES ([1]; 0.1-30 μg/mL, THP-1 monocytes): Neither moxifloxacin nor compound having Formula IV altered | Effect on LPS-stimulated production of fractalkine ([1]; 0.1-30 μg/mL, THP-1 monocytes): Neither moxifloxacin nor compound having Formula IV altered | Effects on GM-CSF, IL-1β, IL-8, IP-10, MCP-1, and MIP-1α after LPS stimulation (comparison of the two fluoroquinolones) ([1]; FIG. 1): comparable effects | Relative potency on G-CSF, IL-1α, IL-1ra, IL-6, and VEGF ([1]; FIG. 2, LPS-stimulated THP-1 monocytes): better potency than moxifloxacin | Concentration at which a significant inhibitory effect was observed for G-CSF [1, 8]: 1 µg/mL | Concentration at which a significant inhibitory effect was observed for GM-CSF [1, 8]: 30 µg/mL | Concentration at which a significant inhibitory effect was observed for IL-1α [1, 8]: 0.1 µg/mL | Concentration at which a significant inhibitory effect was observed for IL-1β [1, 8]: 30 µg/mL | Concentration at which a significant inhibitory effect was observed for IL-6 [1, 8]: 1 µg/mL | Concentration at which a significant inhibitory effect was observed for IL-8 [1, 8]: 30 µg/mL | Concentration at which a significant inhibitory effect was observed for IL-12p40 [1, 8]: 30 µg/mL | Concentration at which a significant inhibitory effect was observed for IP-10 [1, 8]: 30 µg/mL | Concentration at which a significant inhibitory effect was observed for MCP-1 [1, 8]: 30 µg/mL | Concentration at which a significant inhibitory effect was observed for MIP-1α [1, 8]: 30 µg/mL | Concentration as low as which a significant inhibitory effect was seen on IL-1α ([1]; LPS-stimulated THP-1 monocytes): 100 ng/mL | Concentration at which a significant inhibitory effect was seen on G-CSF ([1]; LPS-stimulated THP-1 monocytes): 1000 ng/mL | Concentration at which a significant inhibitory effect was seen on IL-1ra ([1]; LPS-stimulated THP-1 monocytes): 1000 ng/mL | Concentration at which a significant inhibitory effect was seen on IL-6 ([1]; LPS-stimulated THP-1 monocytes): 1000 ng/mL | Effect on IL-1β induced IL-8 release ([2]; 10 μg/mL): significantly reduced; also recorded: diminished | Effect on IL-1β induced IL-8 release ([2]; 30 μg/mL and 10 μg/mL): significantly reduced | IC50 [2]: 7.5 µg/mL (≈ 19 µM) | Concentration needed to reduce IL-1β-induced IL-8 release relative to moxifloxacin ([2]; THP-1 cells): at a lower concentration than moxifloxacin | Effect on IL-1β-stimulated cytokine expression in HCEpiC [3]: significantly inhibited | Effect on lipopolysaccharide (LPS)-stimulated cytokine expression in THP-1 human monocytes [4]: significantly inhibited

IL-1β: interleukin-1β, used to induce cytokine release in THP-1 cells
Stimulation of IL-8 release (THP-1 monocytes): stimulated
